Test results taken from ChEMBL document CHEMBL1201862, “PubChem BioAssay data set” (2004).
Calls of active or inactive are those of the source.

Tests used:
[1] = biological target: Genome polyprotein (dengue virus type 2, UniProt P29990); assay: flavivirus cap methylation enzyme inhibition – biochemical, confirmation dose response, primary screen (AID 588689); type: functional
[2] = biological target: Cytochrome P450 2C9 (Homo sapiens, UniProt P11712)
[3] = Luminescence Cell-Based Dose Response HTS to Identify Inhibitors of 5'UTR Stem-Loop Driven Prion Protein mRNA Translation in H4 Neuroglioblastoma Cells. [Related pubchem assays: 1827 (Project Summary), 1813 (Primary HTS)]; type: functional
[4] = system: BJ; assay: cells; type: functional, cell-based; details: Homo sapiens
[5] = DRD fibroblast viability loss – cell-based, non-viral oncogenic, luminescence, dose response (AID 1934); type: functional; details: Homo sapiens
[6] = luciferase reporter signal suppression in cells – H4 neuroglioma cells, luminescence, dose response (AID 1990); type: functional, cell-based
[7] = system: BJ; assay: BJ-TERT fibroblast viability loss – cell-based, RAS-independent, luminescence, dose response (AID 1933); type: functional; details: Homo sapiens
[8] = system: BJ; assay: BJ-TERT-LT-ST fibroblast viability loss – cell-based, RAS-independent, luminescence, dose response (AID 1935); type: functional; details: Homo sapiens;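 note: BJ fibroblasts immortalized with TERT plus LT and ST oncogenes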
[9] = Luminescence Cell-Based Dose Confirmation HTS to Identify Inhibitors of Platelet Dense Granule Release. [Related pubchem assays: 1663 (Primary HTS), 1678 (Summary of Project)]; type: functional
[10] = biological target: Luciferin 4-monooxygenase (Photinus pyralis, UniProt P08659); assay: inhibition of purified Photinus pyralis luciferase – biochemical, luminescence, dose response (AID 1891)
Luciferin 4-monooxygenase, sequence (P08659 whole entry): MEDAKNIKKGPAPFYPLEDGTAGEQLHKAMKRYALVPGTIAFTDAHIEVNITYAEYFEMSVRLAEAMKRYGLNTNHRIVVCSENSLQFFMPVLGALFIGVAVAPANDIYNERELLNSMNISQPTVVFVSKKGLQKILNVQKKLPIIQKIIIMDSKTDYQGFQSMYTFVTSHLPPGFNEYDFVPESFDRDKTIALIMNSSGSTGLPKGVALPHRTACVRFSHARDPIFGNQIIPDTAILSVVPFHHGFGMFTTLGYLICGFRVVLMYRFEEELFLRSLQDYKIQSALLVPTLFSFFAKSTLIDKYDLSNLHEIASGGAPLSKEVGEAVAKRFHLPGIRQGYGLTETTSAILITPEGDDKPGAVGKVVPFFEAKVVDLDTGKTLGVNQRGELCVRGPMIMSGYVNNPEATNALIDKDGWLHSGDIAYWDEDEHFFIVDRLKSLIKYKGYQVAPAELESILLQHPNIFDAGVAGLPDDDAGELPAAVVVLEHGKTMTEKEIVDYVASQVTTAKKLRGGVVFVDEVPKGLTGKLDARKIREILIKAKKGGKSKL

[11] = biological target: T1, Aminopeptidase N (Plasmodium falciparum FcB1/Columbia, UniProt O96935); assay: malaria alanyl aminopeptidase activity blockers – biochemical, fluorogenic H-Leu-NHMec substrate, 1536-well (AID 1445); set-up: species or system Plasmodium falciparum 3D7, 3D7
T1 sequence (O96935 whole entry): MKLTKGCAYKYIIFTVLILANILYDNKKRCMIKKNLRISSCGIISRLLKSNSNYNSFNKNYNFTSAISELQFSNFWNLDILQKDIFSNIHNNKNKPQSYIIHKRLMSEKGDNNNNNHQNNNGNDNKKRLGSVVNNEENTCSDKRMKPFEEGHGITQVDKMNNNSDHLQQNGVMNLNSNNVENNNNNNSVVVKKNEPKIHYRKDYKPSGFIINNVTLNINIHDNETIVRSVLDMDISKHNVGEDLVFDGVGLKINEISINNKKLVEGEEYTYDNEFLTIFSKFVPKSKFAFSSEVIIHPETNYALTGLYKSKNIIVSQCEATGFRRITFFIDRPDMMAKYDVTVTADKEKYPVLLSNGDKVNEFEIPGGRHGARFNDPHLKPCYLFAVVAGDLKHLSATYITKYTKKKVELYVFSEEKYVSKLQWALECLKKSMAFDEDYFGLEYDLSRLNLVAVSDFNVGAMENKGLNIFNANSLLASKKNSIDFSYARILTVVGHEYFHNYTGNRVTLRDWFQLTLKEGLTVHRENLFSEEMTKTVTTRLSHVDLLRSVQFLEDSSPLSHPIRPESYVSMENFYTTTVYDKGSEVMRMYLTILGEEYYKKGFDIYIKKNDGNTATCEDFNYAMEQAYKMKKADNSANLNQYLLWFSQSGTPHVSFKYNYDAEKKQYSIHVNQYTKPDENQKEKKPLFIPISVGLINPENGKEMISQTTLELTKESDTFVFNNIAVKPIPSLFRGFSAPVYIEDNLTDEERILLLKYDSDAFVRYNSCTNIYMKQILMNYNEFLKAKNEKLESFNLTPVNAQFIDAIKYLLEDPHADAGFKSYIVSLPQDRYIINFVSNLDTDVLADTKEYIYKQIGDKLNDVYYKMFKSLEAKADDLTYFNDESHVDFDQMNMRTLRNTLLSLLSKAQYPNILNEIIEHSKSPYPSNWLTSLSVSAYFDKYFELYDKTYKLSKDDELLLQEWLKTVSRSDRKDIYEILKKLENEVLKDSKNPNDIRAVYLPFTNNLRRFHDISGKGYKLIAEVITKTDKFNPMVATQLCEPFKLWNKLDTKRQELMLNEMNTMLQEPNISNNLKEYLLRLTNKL

[12] = viability of PTEN-deleted HCT116 cells – cell-based, HCT116 PTEN knockout, dose response (AID 1047); type: functional;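 note: HCT116 colon tumor cells with PTEN knocked out; cells exposed to compound for 60 hours before readout; potency for loss of cell viability measured by luminescence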
[13] = viability of HCT116 lacking mutant beta-catenin – cell-based, human colon tumor, dose response (AID 1045); type: functional;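 note: HCT116 colon tumor cells with beta catenin knocked out; cells exposed to compound for 60 hours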
[14] = NIH3T3 cell viability loss – ATP luminescence, mouse fibroblasts, counter-screen, dose response (AID 2010); type: functional, cell-based;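 note: cells exposed to compound for about 90 hours before reading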
[15] = Trypanosoma cruzi growth suppression in host cells – NIH3T3 host cells, beta-gal luminescence, confirmation (AID 2044); type: functional, cell-based;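 note: intracellular parasites grown in NIH/3T3 mouse fibroblasts as host cells; luminescent beta-galactosidase reporter signal from transgenic T. cruzi replicating inside host cells; inhibitors lower the luminescence signal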
[16] = cells; type: functional
[17] = biological target: Cytochrome P450 3A4 (Homo sapiens, UniProt P08684);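 note: CYP3A4 tested as one member of a cytochrome P450 panel screen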
Cytochrome P450 3A4, sequence (P08684 whole entry): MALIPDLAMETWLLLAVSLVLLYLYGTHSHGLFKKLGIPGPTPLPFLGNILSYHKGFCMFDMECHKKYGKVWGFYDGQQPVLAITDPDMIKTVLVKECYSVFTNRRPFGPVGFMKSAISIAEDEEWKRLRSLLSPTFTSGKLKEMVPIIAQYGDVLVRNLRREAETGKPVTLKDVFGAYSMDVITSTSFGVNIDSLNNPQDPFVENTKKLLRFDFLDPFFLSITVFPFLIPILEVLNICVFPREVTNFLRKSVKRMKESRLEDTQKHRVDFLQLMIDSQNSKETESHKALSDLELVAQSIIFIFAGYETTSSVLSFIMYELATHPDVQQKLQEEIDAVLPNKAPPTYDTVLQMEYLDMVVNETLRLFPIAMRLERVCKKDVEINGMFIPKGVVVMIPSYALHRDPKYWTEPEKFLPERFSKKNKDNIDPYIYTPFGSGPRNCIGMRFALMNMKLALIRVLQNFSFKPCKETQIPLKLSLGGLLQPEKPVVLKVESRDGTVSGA

[18] = biological target: T2, Cytochrome P450 1A2 (Homo sapiens, UniProt P05177);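 note: PubChem cytochrome P450 panel assay, CYP1A2 panel member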
T2 sequence (P05177 whole entry): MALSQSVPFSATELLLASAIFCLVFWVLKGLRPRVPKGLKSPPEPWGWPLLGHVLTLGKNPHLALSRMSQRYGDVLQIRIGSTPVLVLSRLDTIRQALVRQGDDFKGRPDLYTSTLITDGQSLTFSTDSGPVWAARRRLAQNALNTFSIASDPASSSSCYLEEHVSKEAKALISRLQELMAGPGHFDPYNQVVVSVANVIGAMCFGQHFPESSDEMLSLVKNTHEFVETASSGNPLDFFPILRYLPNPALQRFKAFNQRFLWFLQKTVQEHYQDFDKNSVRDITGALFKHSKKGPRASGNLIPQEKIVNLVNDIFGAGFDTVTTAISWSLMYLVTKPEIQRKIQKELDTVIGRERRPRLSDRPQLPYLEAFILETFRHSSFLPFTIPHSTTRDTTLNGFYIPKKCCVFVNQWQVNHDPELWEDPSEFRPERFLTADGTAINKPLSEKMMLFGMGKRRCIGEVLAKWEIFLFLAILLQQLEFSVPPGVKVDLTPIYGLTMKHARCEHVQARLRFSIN

[19] = biological target: Cytochrome P450 2C19 (Homo sapiens, UniProt P33261); assay: Cytochrome panel assay with activity outcomes. Panel member name: p450-cyp2c19 Compounds with AC50 equal or less than 10 uM are considered active; type: functional; details: read-out: AC50
Cytochrome P450 2C19, sequence (P33261 whole entry): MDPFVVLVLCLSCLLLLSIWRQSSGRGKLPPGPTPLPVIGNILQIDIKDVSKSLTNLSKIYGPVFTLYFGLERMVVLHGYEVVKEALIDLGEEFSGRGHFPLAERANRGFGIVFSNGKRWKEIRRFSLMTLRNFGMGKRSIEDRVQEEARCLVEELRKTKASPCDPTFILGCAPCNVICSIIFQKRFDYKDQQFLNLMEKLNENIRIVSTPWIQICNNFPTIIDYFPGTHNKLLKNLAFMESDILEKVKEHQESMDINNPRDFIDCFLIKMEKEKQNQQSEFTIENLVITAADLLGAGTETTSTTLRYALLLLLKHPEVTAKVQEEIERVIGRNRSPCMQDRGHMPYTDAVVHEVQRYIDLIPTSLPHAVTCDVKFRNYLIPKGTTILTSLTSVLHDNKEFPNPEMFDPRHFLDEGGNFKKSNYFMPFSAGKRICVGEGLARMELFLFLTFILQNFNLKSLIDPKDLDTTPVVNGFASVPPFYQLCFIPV

[20] = biological target: Cytochrome P450 2D6 (Homo sapiens, UniProt P10635);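 note: CYP2D6 member of a cytochrome P450 panel assay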
Cytochrome P450 2D6, sequence (P10635 whole entry): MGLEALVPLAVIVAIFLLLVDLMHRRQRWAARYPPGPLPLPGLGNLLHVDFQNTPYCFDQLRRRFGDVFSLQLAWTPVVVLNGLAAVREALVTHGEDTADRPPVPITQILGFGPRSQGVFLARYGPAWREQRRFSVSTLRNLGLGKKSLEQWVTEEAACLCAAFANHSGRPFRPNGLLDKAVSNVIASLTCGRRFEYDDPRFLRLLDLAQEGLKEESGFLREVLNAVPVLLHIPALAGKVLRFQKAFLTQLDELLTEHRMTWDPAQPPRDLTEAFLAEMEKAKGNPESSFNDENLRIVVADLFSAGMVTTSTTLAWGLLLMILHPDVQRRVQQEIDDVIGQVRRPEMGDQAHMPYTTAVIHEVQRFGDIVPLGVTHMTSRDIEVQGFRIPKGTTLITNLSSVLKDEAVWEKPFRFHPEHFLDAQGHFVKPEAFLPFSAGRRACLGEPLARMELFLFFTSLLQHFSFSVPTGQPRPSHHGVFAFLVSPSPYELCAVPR

[21] = P. falciparum Dd2 growth inhibitors, dose response, SYBR Green, cherry-picked samples (AID 1159567); type: functional, cell-based

Genome polyprotein, sequence (P29990 2492-3391 limits assumed): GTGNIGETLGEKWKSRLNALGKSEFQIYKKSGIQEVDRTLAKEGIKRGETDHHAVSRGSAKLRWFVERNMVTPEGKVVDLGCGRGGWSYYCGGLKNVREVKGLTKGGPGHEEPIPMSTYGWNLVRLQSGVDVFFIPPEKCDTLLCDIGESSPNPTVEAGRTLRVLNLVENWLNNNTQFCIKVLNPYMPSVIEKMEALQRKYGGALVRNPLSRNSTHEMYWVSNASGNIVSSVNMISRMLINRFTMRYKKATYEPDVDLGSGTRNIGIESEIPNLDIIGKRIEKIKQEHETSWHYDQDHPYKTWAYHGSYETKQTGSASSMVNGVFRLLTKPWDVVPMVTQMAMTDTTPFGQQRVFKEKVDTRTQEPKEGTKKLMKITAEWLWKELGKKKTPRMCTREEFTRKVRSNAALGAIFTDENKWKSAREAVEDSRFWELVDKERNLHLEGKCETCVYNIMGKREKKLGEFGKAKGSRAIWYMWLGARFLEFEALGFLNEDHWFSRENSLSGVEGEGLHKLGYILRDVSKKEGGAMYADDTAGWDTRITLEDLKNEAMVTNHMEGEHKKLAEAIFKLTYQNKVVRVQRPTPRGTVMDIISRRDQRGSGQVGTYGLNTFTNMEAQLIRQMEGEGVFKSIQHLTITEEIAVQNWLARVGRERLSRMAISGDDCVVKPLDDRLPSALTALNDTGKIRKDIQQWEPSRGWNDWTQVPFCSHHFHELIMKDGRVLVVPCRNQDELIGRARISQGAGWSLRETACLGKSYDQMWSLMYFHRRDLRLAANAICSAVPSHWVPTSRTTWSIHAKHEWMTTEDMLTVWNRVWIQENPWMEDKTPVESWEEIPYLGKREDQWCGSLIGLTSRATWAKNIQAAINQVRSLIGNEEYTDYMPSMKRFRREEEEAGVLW
Cytochrome P450 2C9, sequence (P11712 whole entry): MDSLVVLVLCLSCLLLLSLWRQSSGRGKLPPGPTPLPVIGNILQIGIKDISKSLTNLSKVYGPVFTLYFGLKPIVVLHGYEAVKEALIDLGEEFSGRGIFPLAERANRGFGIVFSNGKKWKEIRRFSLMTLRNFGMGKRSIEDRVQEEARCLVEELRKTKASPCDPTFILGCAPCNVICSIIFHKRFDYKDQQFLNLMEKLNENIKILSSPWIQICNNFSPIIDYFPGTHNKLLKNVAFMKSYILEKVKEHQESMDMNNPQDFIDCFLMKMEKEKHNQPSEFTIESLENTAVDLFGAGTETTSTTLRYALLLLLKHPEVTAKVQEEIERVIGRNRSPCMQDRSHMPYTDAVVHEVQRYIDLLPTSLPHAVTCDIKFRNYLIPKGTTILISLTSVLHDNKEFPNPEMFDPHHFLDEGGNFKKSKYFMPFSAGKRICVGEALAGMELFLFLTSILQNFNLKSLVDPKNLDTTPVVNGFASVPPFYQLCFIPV

CSC1=C(C#N)C(=O)NC(c2ccccc2O)S1 (stereo unspecified)
IC50 [1]: 45.2 µM (active)

CN(C)c1nc(-c2cccnc2)nc2ccccc12
AC50 [2]: inconclusive

COc1ccc(-n2c(SC(C)C(=O)Nc3ncc(Cl)cc3Cl)nc3ccccc32)cc1 (stereo unspecified)
EC50 [3]: 38.4 µM (active) | EC50 [4]: 22.3 µM (active) | EC50 [5]: 89.7 µM (active) | EC50 [6]: 12.6 µM (active) | EC50 [7]: 29.8 µM (active) | EC50 [8]: > 150 µM (not active)

Cc1cccc(C(=O)O/N=C(\N)c2ccccn2)c1
EC50 [9]: 20.4 µM (active) | EC50 [10]: 7.75 µM (active)

Cc1cccc(C2C3=C(O)c4ccccc4C3=Nc3nn(-c4ccccc4)c(O)c32)c1 (stereo unspecified)
IC50 [1]: 59.4 µM (active) | IC50 [11]: 38.3 µM (active)

COCCCNC(=O)c1cc2c(=O)n(C)c3ccccc3c2n1C
EC50 [12]: 14.4 µM (active) | EC50 [13]: 15.4 µM (active)

CCOc1cc(/C=C2\C(=O)ON=C2c2ccccc2)ccc1OC
IC50 [1]: 27.1 µM (active)

C[C@H](NC1=NS(=O)(=O)c2ccccc21)C(=O)OCc1cc([N+](=O)[O-])cc2c1OCOC2
EC50 [9]: > 112 µM (not active) | EC50 [10]: > 112 µM (not active)

OC(CNc1ccccc1)COc1ccc(OCC(O)CNc2ccccc2)cc1 (stereo unspecified)
EC50 [12]: 15.6 µM (active) | EC50 [13]: 15 µM (active) | EC50 [14]: > 60 µM (not active) | EC50 [15]: 3.54 µM (active)

COc1cccc2cc(-c3nc4ccccc4[nH]3)c(=O)oc12
IC50 [16]: < 0.1 µM (active)

CCOC(=O)C1=C(O)/C(=C/c2cc(OC)c(OC)c(OC)c2)N=C1C
AC50 [17]: 17.8 µM (inconclusive) | EC50 [9]: > 112 µM (not active) | EC50 [10]: > 112 µM (not active) | AC50 [18]: 14.1 µM (inconclusive)

COc1ccc(CCN2C(=O)c3ccccc3NC2c2cc(Cl)c(O)c(OC)c2)cc1 (stereo unspecified)
EC50 [4]: > 150 µM (inconclusive) | EC50 [5]: 12.9 µM (active) | EC50 [7]: 11.3 µM (inconclusive) | EC50 [8]: 25.7 µM (inconclusive)

O=C(NCC1CCCO1)c1cccc(NC(=O)c2ccc(Br)cc2)c1 (stereo unspecified)
EC50 [9]: > 112 µM (not active) | EC50 [10]: > 112 µM (not active)

O=C(Cc1ccc(Cl)cc1)NNC(=O)Nc1cccc2ccccc12
AC50 [18]: 2.51 µM (inconclusive) | AC50 [2]: inconclusive

Cc1ccc(C)c(NC(=O)Cn2nnc(C(=O)Nc3c(C)cccc3C)c2N)c1
AC50 [19]: 17.8 µM (inconclusive) | AC50 [2]: inconclusive

O=C(/C=C/c1ccccc1Cl)NCCN1CCOCC1
AC50 [17]: 15.8 µM (inconclusive) | AC50 [19]: 5.01 µM (inconclusive) | AC50 [2]: inconclusive

Cc1cc(C(=O)N/N=C/c2ccc3c(c2)OCO3)c2ccccc2n1
EC50 [4]: 33.6 µM (active) | EC50 [5]: 22.7 µM (active) | EC50 [7]: 12.7 µM (active) | EC50 [8]: 20.9 µM (active)

Cn1cccc1/C=N/NC(=O)c1sc2ccccc2c1Cl
AC50 [20]: 10 µM (inconclusive) | AC50 [2]: inconclusive

COc1ccccc1S(=O)(=O)N1[C@@H]2CNC[C@H]1[C@H]2c1ccc(-c2ccccc2C)cc1
AC50 [21]: 27.7 µM (active)
